Experimental data from US12479856B2, “Pharmaceutical compounds for the treatment of complement mediated disorders” (Achillion Pharmaceuticals, Inc., priority 2019, dated 2025).
Read-outs that look alike come from different tables or passages of the source.

Target: T1, Human complement C1s enzyme (Homo sapiens, UniProt P09871)
T1 construct: purified from human serum, Complement Technology, Inc; purchased Complement Technology, Inc; host or cells: human serum (plasma-derived natural protein)
T1 sequence (P09871 438-688 limits assumed): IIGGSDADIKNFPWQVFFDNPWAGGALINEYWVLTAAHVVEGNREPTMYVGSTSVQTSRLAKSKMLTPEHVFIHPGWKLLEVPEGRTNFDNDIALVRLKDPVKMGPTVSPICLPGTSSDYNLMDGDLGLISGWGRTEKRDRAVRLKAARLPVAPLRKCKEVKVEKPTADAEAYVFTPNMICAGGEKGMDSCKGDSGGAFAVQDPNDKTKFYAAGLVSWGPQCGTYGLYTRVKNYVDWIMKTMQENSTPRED
T1 sequence (P09871 16-437 partner limits assumed): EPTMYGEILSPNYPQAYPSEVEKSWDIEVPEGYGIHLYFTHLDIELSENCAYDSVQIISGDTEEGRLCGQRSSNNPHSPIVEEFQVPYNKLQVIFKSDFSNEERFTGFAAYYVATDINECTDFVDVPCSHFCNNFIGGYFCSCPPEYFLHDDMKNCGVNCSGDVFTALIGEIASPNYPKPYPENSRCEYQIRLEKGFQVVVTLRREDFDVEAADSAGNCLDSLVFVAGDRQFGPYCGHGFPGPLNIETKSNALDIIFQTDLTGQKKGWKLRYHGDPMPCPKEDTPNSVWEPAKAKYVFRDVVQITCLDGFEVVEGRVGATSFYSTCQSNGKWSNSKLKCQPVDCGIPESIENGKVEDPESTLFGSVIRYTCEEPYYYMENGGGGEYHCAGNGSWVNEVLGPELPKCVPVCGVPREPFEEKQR
Experiment: Human C1s Enzyme Assay
Type: biochemical
Details: C1s purified from human serum, 1.16 nM, substrate Z-L-Lys-SBzl, read-out: C1s Protease Activity
Summary of the method: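 Serum-purified human C1s (1.16 nM) preincubated 5 min at RT with compound in 50 mM Tris, 1 M NaCl, pH 7.5. Z-L-Lys-SBzl and DTNB (100 μM each) then added; A405 followed every 30 s for 30 min. IC50 from nonlinear regression of reaction rates versus compound concentration.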

Row | IC50 (Table 3) [nM] | IC50 (Table 2) [nM] | SMILES | other results
1 | < 100 |  | N=C(N)c1csc(CNC(=O)C2C3CCC(C3)N2C(=O)CNC(=O)c2ccc(Oc3ccccc3)cc2)c1 (stereo in doubt) [Compound 96, (1R,3R,4S)-N-((4-carbamimidoylthiophen-2-yl)methyl)-2-((4-phenoxybenzoyl)glycyl)-2-azabicyclo[2.2.1]heptane-3-carboxamide] | 
2 |  |  | N=C(N)c1csc(CNC(=O)[C@@H]2CC3(CCCCC3)CN2C(=O)CNC(=O)c2ccc(Oc3ccccc3)cc2)c1 [Compound 13, (3S)—N-[(4-Carbamimidoylthiophen-2-yl)methyl]-2-{2-[(4-phenoxyphenyl)formamido]acetyl}-2-azaspiro[4.5]decane-3-carboxamide] | IC50 (Table 1): > 1000 nM
3 |  | > 1000 | CO[C@@H]1C[C@H](C(=O)CNC(=O)c2ccc(Oc3ccccc3)cc2)[C@@H](C(=O)NCc2cc(C(=N)N)cs2)C1 [Compound 62, N-(2-((1S,2S,4R)-2-(((4-carbamimidoylthiophen-2-yl)methyl)carbamoyl)-4-methoxycyclopentyl)-2-oxoethyl)-4-phenoxybenzamide] | 
4 |  | 100 to 1000 | CCCCCCC(=O)NCC(=O)N1CCC[C@H]1C(=O)NCc1cc(C(=N)N)cs1 [Compound 83, (S)-N-((4-carbamimidoylthiophen-2-yl)methyl)-1-(heptanoylglycyl)pyrrolidine-2-carboxamide] | 
5 | < 100 |  | N=C(N)c1csc(CNC(=O)[C@@H]2C[C@@H](c3ccccc3)CN2C(=O)CNC(=O)c2ccc(Oc3ccccc3)cc2)c1 [Compound 97, (2S,4S)-N-((4-carbamimidoylthiophen-2-yl)methyl)-1-((4-phenoxybenzoyl)glycyl)-4-phenylpyrrolidine-2-carboxamide] | 
6 |  |  | C[C@H]1C[C@@H](C(=O)NCc2cc(C(=N)N)cs2)N(C(=O)CNC(=O)c2ccc(Oc3ccccc3)cc2)C1 [Compound 30, (2S,4S)—N-[(4-carbamimidoylthiophen-2-yl)methyl]-4-methyl-1-{2-[(4-phenoxyphenyl)formamido]acetyl}pyrrolidine-2-carboxamide] | IC50 (Table 1): < 100 nM
7 |  | < 100 | N#C/N=C(\N)c1csc(CNC(=O)[C@@H]2CC3(CN2C(=O)CNC(=O)c2ccc(Oc4ccccc4)cc2)OCCO3)c1 [Compound 63, (S,Z)-N-((4-(N′-cyanocarbamimidoyl)thiophen-2-yl)methyl)-7-((4-phenoxybenzoyl)glycyl)-1,4-dioxa-7-azaspiro[4.4]nonane-8-carboxamide] | 
8 | < 100 |  | N=C(N)c1csc(CNC(=O)[C@@H]2C[C@H](Oc3ccc(F)cc3)CN2C(=O)CNC(=O)c2ccc(Oc3ccccc3)cc2)c1 [Compound 103, (2S,4S)-N-((4-carbamimidoylthiophen-2-yl)methyl)-4-(4-fluorophenoxy)-1-((4-phenoxybenzoyl)glycyl)pyrrolidine-2-carboxamide] | 
9 |  | < 100 | Cc1cc(C(=O)NCC(=O)N2CCC[C@H]2C(=O)NCc2cc(C(=N)N)cs2)ccc1Oc1ccccc1 [Compound 39, (S)-N-((4-carbamimidoylthiophen-2-yl)methyl)-1-((3-methyl-4-phenoxybenzoyl)glycyl)pyrrolidine-2-carboxamide] | 
10 | < 100 |  | N=C(N)c1csc(CNC(=O)[C@@H]2C[C@H](Oc3cccc(F)c3)CN2C(=O)CNC(=O)c2ccc(Oc3ccccc3)cc2)c1 [Compound 108, (2S,4S)-N-((4-carbamimidoylthiophen-2-yl)methyl)-4-(3-fluorophenoxy)-1-((4-phenoxybenzoyl)glycyl)pyrrolidine-2-carboxamide] | 
11 |  |  | CO[C@@H]1C[C@@H](C(=O)NCc2cc(C(=N)N)cs2)N(C(=O)CNC(=O)c2ccc(Oc3ccccc3)cc2)C1 [Compound 32, (2S,4R)—N-[(4-carbamimidoylthiophen-2-yl)methyl]-4-methoxy-1-{2-[(4-phenoxyphenyl)formamido]acetyl}pyrrolidine-2-carboxamide] | IC50 (Table 1): < 100 nM
12 |  | > 1000 | CN(C)CCCCC(=O)NCC(=O)N1CCC[C@H]1C(=O)NCc1cc(C(=N)N)cs1 [Compound 70, (S)-N-((4-carbamimidoylthiophen-2-yl)methyl)-1-((5-(dimethylamino)pentanoyl)glycyl)pyrrolidine-2-carboxamide] | 
